Measurements from patent publication US7230104B2, “Fungicidal 5-phenyl substituted 2-(cyanoamino) pyrimidines” (priority 2000, dated 2007).
In brackets after ≈: the same amount, converted by molar mass.

What was measured:
Rhizoctonia solani = details: 10 ppm; 3–7 days of incubation
Experimental: After 3–7 days of incubation, inhibition of mycelial growth is recorded using the following scale: The data obtained are shown in Table VI.

[1] = tested on: Pyricularia grisea sp. oryzae; format: in vivo; details: Rice Blast; plants sprayed with 200 ppm test solution, inoculated the same day
[2] = Evaluation of in vivo fungicidal activity, Grape downy mildew (GDM); design: species or system Uniclnula necator; details: plants sprayed with 200 ppm test solution, inoculated the same day
Venturia inaequalis = test: Evaluation of in vivo fungicidal activity, Apple Scab (AS); details: plants sprayed with 200 ppm test solution, inoculated the same day
Pyricularia Oryzae = format: cell-based; details: lowest concentration causing total inhibition of mycelial growth; 6–12 days incubation at 18 to 25° C.; visual inspection

| Compound | Rhizoctonia solani (Rice sheath blight) inhibition of mycelial growth rating (Rhizoctonia solani) | RB disease control rating [1] | GDM disease control rating [2] | AS disease control rating (Venturia inaequalis) | MIC (Pyricularia Oryzae) [µg/mL] |
| --- | --- | --- | --- | --- | --- |
| CC(Nc1nc(N(C)C#N)nc(Cl)c1-c1c(F)cc(F)cc1F)C(F)(F)F (centres unmarked) [Example 1, 2-(N-cyano-N-methylamino)-4-chloro-5-(2,4,6-trifluorophenul)-6-(1,1,1-trifluoroprop-2-ylamino)-pyrimidine] | 7 | – | – | – | – |
| CCCCN(C#N)c1nc(Cl)c(-c2c(F)cc(F)cc2F)c(NC(C)C(F)(F)F)n1 (centres unmarked) [Example 2] | – | 0 (0) | 0 (0) | 0 (0) | – |
| CC(C)Nc1nc(N(C)C#N)nc(Cl)c1-c1c(F)cc(F)cc1F [Example 3] | – | 5 (60–74) | 7 (90–95) | 7 (90–95) | 3.13 (≈ 8.8 µM) |
| CN(C#N)c1nc(Cl)c(-c2c(F)ccc(F)c2F)c(NC2CCCC2)n1 [Example 4] | 7 | 3 (30–44) | 3 (30–44) | 5 (60–74) | >100 |
| CC1CCN(c2nc(N(C)C#N)nc(Cl)c2-c2c(F)cccc2Cl)CC1 [Example 5] | 0 | 4 (45–59) | 0 (0) | 9 (100) | 25 (≈ 63.4 µM) |
| CCC(C)Nc1nc(N(C)C#N)nc(Cl)c1-c1c(F)cccc1Cl (centres unmarked) [Example 6] | 0 | 6 (75–89) | 3 (30–44) | 9 (100) | 6.25 (≈ 17 µM) |
| CC1CCN(c2nc(N(C)C#N)nc(Cl)c2-c2c(F)cc(F)cc2F)CC1 [Example 7] | 0 | – | – | – | 100 (≈ 253 µM) |
| CC(N(C)c1nc(N(C)C#N)nc(Cl)c1-c1c(F)cc(F)cc1F)C(F)(F)F (centres unmarked) [Example 8] | 7 | – | – | – | – |
